# Data as given in patent publication US12370183B2, “Compositions and methods for treating malaria” (Rutgers, The State University of New Jersey, priority 2020, dated 2025).
# Where two headings read alike, the source gives them in different places.
# How the values were obtained:
# Type in all cases: cell-based
# Wild-Type attB Pf Dd2 = assay: P. falciparum (Dd2 strain) asexual blood stage assay, wild-type attB; settings: Plasmodium falciparum
# Experimental: (§1) Assays using human blood cells infected with Plasmodium falciparum: (Pf) parasites, both wild-type strains as well as mutant drug-resistant strains, were performed as described below. Wild-type strains used were aatB Pf (Dd2 strain) and Pf (Dd2 strain). Mutant strains used were proguanil resistant attb Pf (Dd2 strain), dihydroorotate dehydrogenase (DHODH) deficient aatB Pf (Dd2 strain), and DHODH deficient and proguanil resistant Pf (Dd2 strain).
# (§2) 2008 Jul. 1; 105(26):9059-64.
# (§3) Parasitemia was estimated by blood smear Giemsa stain and visual inspection under the microscopic.
# The screening plate was prepared by centrifuging for parasite culture for 5 min at 800×g at RT (low brake) and removing supernatant. A parasite suspension was prepared with 0.3% parasitemia and 4% hematocrit in screening medium (SM). The suspension was gassed with a gas mixture of 1% oxygen, 3% carbon dioxide, 96% nitrogen and stored at 37° C. for until ready to use. 50 nl of 1 mM compound in DMSO was prespotted into 1536 well plates (final drug conc. of 12.5 μM, final DMSO conc. of 0.625%) with the acoustic dispenser ATS. Controls were Artemisinin, Chloroquine, and DMSO. 8 μl of SM was dispensed into 1,536-well, black, clear-bottom plates (Greiner) using the MultiFlo™ Microplate dispenser (BioTek) (final parasitemia of 0.3% and 2.5% hematocrit in SM). The plates were incubated at 37° C. for 72 h with water-soaked tissue in a closed ziploc bag gassed with 1% oxygen, 3% carbon dioxide, 96% nitrogen.
# (§4) 2 μl of detection reagent mixture (10×SYBR Green I (Invitrogen) in Lysis buffer (20 mM Tris/HCl, 5 mM EDTA, 0.16% Saponin wt/vol, 1.6% Triton X vol/vol) was added. Assay plates were read from the bottom by using the 2104 EnVision® Multilabel Reader (PerkinElmer) (485 nm excitation, 530 nm emission). The results are presented in Table 5 below.
# [1] = system: DHODH deficient + Proguanil resistant Pf Dd2; assay: P. falciparum (Dd2 strain) asexual blood stage assay, DHODH deficient + proguanil resistant; settings: Plasmodium falciparum, DD2, 72 h, read-out: DHODH deficient + Proguanil resistant Pf Dd2 IC50 (uM)
# Experimental: as §1, §2, §3
# (§5) The screening plate was prepared by centrifuging for parasite culture for 5 min at 800×g at RT (low brake) and removing supernatant. A parasite suspension was prepared with 0.3% parasitemia and 4% hematocrit in screening medium (SM). The suspension was gassed with a gas mixture of 1% oxygen, 3% carbon dioxide, 96% nitrogen and stored at 37° C. for until ready to use. […]
# as §4
# Pf Dd2 = assay: P. falciparum (Dd2 strain) asexual blood stage assay, Pf Dd2; settings: Plasmodium falciparum, DD2, 72 h, read-out: Pf Dd2 IC50 (uM)
# Experimental: as §1, §2, §3, §5, §4
# [2] = system: P. berghei Luciferase sporozoites in HepG2-A16-CD81EGFP cells; assay: P. berghei Luciferase liver stage assay; settings: Plasmodium berghei, 48 h after infection, bioluminescence, read-out: IC50 against sporozoite infection of liver cells (P. berghei Luciferase)
# Experimental: Compounds 66 and 177 were tested for activity against sporozoite infection of liver cells as well the viability of liver schizonts of the murine Plasmodium berghei species transformed with Luciferase by using an assay adapted from S. Swann et al. (2016) High-Throughput Luciferase-Based Assay for the Discovery of Therapeutics That Prevent Malaria. ACS Infectious Diseases 2: 4. 281-293 (2016).
# Compounds 66 and 177 were tested for activity against sporozoite infection of liver cells of the murine Plasmodium berghei species transformed with Luciferase by using the following P. berghei Luciferase liver stage assay.
# Hepatic human transformed cells (HepG2) pre-treated for 18 hours with either compound 66 or 177 were infected with freshly dissected P. berghei Luciferase sporozoites. After another 48 hours of incubation with the compound, the viability of P. berghei exoerythrocytic forms (EEF) was measured by bioluminescence.
# Plasmodium berghei Luciferase sporozoites were obtained by dissection of infected A. stephensi mosquito salivary glands supplied by the New York University Insectary. Dissected salivary glands were homogenized in a glass tissue grinder and filtered twice using Steriflip Vacuum-Driven Filtration System (20 μm pore size, Millipore) and counted using a hemocytometer. The sporozoites were kept on ice until needed. […]
# [3] = DD2, 72 h, read-out: Wild-Type attB Pf Dd2 IC50 (uM)
# [4] = DD2, read-out: IC50 against wild-type attB Pf
SMILES,IC50 (Wild-Type attB Pf Dd2; [3]) [µM],IC50 (Wild-Type attB Pf Dd2; [4]) [µM],IC50 [1] [µM],IC50 (Pf Dd2) [µM],IC50 [2] [nM]
"O=C(Nc1ccc(F)c(F)c1)c1c2c(nc3ccccc13)CCN(Cc1ccccc1)C2 [Compound 66, 2-Benzyl-N-(3,4-difluorophenyl)-1,2,3,4-tetrahydrobenzo[b][1,6]naphthyridine-10-carboxamide]",0.0565,0.0556,0.028,0.302,> 50000
"O=C1c2c3c(nc4ccccc24)CCN(Cc2ccccc2)C3N1c1ccc(F)c(F)c1 (stereo not shown) [Compound 177, 3-Benzyl-2-(3,4-difluorophenyl)-2a,3,4,5-tetrahydrobenzo[b]pyrrolo[4,3,2-de][1,6]naphthyridin-1(2H)-one]",0.00895,0.00895,0.0103,0.0063,> 12500
